Results as given in patent publication US5597845A, “Substituted alkyldiamine derivatives” (Merrell Pharmaceuticals Inc., priority 1994, dated 1997).

Experiments:
[1] = target: T1, human jejunal NK2 receptor (Homo sapiens, UniProt P21452); assay: Antagonism of iodinated tachykinin binding: NK2 receptor affinity in HSKR-1 cells (125 iodohistidyl-1-neurokinin A); settings: HSKR-1 cells (mouse 3T3 fibroblasts expressing human jejunal NK2 receptor); 125I-neurokinin A 0.1 nM; 2 hr room temperature; mean of several experiments
T1 construct: expressed in transfected cells; host or cells: HSKR-1 cells (mouse 3T3 fibroblasts)
T1 sequence (P21452 1-398): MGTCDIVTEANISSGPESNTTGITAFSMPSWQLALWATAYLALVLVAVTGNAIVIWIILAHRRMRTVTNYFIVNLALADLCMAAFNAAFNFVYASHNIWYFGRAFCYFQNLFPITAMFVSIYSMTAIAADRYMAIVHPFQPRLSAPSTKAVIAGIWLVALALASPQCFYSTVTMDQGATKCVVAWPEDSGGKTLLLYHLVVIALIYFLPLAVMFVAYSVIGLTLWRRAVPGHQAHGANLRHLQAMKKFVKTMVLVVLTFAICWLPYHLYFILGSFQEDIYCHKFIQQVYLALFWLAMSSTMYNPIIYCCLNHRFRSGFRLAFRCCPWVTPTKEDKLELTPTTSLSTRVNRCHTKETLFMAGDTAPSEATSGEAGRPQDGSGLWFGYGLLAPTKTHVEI
Procedure: (§1) The NK1 receptor affinity of proposed tachykinin antagonists was evaluated in guinea pig lungs (Keystone Biologicals, Cleveland, Ohio) and affinity for the NK2 receptor evaluated in HSKR-1 cells (which are mouse 3T3 fibroblasts expressing the human jejunal NK2 receptor). Tissues or cells were homogenized with a Polytron in 15 volumes of 50 mM Tris-HCl buffer (pH 7.4, 4° C.) and centrifuged. The pellet was resuspended in Tris-HCl buffer and was centrifuged; the pellet was washed twice by resuspension. The final pellet was resuspended at a concentration of 40 mg/ml for tissues and 20 mg/ml for cells in incubation buffer and remained at room temperature for at least 15 min prior to use. Receptor binding was initiated by addition of 250 ul membrane preparation in duplicate to 0.1 nM of the following radioligands: ^125 I-Bolton Hunter Lys-3 labeled substance P and ^125 iodohistidyl-1-neurokinin A; in a final volume of 500 ul of buffer containing 50 mM Tris-HCl (pH 7.4 at room temperature), 0.1% bovine serum albumin, 2 mM MnCl2, 40 ug/ml bacitracin, 4 μg/ml leupeptin and chymostatin, 1 μM thiorphan and various doses of the putative tachykinin antagonists. Incubations were performed at room temperature for 90 min (NK1 receptor assays) or 2 hr (NK2 receptor assay); binding was terminated by addition of 50 mM Tris-HCl buffer (pH 7.4, 4° C.) and filtration under vacuum through GF/B filters presoaked with 0.1% polyethyleneimine (NK, receptor assays) or 0.5% bovine serum albumin (NK2 receptor assay). Filter bound radioactivity was quantitated in a gamma counter. Nonspecific binding was defined as binding in the presence of 1 μM substance P or neurokinin A. Specific binding was calculated by subtracting nonspecific binding from total binding. Competition of iodinated SP or NKA binding by test compounds or standards was expressed as a percentage of this maximum competition. IC50 values (concentration required to inhibit 50% of receptor binding) were generated for each of the test compounds by nonlinear regression using an iterative curve fitting program (GraphPAD Inplot, San Diego, Calif.).
(§2) IC50 values for some of the compounds of the present invention are found in Table 1 and represent the mean of several experiments.

NK1 receptor = target: T2, NK1 receptor (Cavia porcellus, UniProt P30547); assay: Antagonism of iodinated tachykinin binding: NK1 receptor affinity in guinea pig lungs (125I-Bolton Hunter Lys-3 labeled substance P); settings: 125I-substance P 0.1 nM, 90 min room temperature, mean of several experiments
T2 construct: evaluated in guinea pig lungs; tissue Keystone Biologicals, Cleveland, Ohio; host or cells: guinea pig lung
Procedure: as §1, §2

T2 sequence (P30547 whole entry): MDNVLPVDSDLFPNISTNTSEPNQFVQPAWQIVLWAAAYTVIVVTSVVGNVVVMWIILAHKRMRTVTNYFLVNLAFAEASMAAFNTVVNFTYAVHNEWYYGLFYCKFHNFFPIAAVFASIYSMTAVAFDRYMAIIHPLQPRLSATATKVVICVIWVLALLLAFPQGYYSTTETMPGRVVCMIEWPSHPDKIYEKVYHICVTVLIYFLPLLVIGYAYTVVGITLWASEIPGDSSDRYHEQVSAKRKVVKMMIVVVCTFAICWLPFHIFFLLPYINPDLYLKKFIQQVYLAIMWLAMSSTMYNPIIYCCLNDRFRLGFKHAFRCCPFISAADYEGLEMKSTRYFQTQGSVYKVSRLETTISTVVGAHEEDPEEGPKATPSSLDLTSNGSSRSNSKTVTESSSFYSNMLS

What does the source list for `COC(=O)[C@H](Cc1c[nH]c2ccccc12)NCCN[C@@H](Cc1ccc2ccccc2c1)C(=O)N(C)Cc1ccc(Cl)c(Cl)c1` [Compound No. 2, (S)-N-(3,4-Dichlorobenzyl)-N-methyl-2-[[(S)-2-(1H-indol-3-yl)-1-carboxymethyl-ethylamino]-ethylamino]-3-(naphth-2-yl)-propionamide]?
IC50 [1]: 632 nM; IC50 (NK1 receptor): 61.5 nM

With `COC(=O)[C@@H](Cc1c[nH]c2ccccc12)NCCN[C@@H](Cc1ccccc1)C(=O)N(C)Cc1ccccc1` [Compound No. 3, (S)-N-Benzyl-N-methyl-2-[[(R)-2-(1H-indol-3-yl)-1-carboxymethyl-ethylamino]-ethylamino]-3-phenyl-propionamide] as the compound, how does the IC50 [1] read?
The IC50 was 215 nM.

What about the IC50 (NK1 receptor) of the same compound?
Its IC50 is 929 nM.

With `COC(=O)[C@H](Cc1c[nH]c2ccccc12)NCCN[C@@H](Cc1ccccc1)C(=O)N(C)Cc1ccccc1OC` [Compound No. 4, (S)-N-(2-Methoxybenzyl)-N-methyl-2-[[(S)-2-(1H-indol-3-yl)-1-carboxymethyl-ethylamino]-ethylamino]-3-phenyl-propionamide] as the compound, how does the IC50 [1] read?
The IC50 was 271 nM.

And the IC50 (NK1 receptor)?
Its IC50 is 146 nM.

How did the IC50 [1] turn out when `COC(=O)[C@H](Cc1c[nH]c2ccccc12)NCCN[C@@H](Cc1ccc2ccccc2c1)C(=O)N(C)Cc1ccccc1` [Compound No. 5] was run?
The IC50 was 284 nM.

What about the IC50 (NK1 receptor) of the same compound?
Its IC50 is 78.1 nM.

`COC(=O)[C@H](Cc1c[nH]c2ccccc12)NCCN[C@@H](Cc1ccccc1)CN(C)C(=O)c1cc(OC)c(OC)c(OC)c1` [Compound No. 10, N-Methyl-N-[(S)-2-[[(S)-2-(1H-indol-3-yl)-1-carboxymethyl-ethylamino]-ethylamino]-3-phenyl-propyl]-(3,4,5-trimethoxy)benzamide] was tested. Which IC50 [1] did it give?
The IC50 was 2560 nM.

What about the IC50 (NK1 receptor) of the same compound?
Its IC50 is 631 nM.

For `COC(=O)[C@H](Cc1ccccc1)NCCN[C@@H](Cc1ccccc1)C(=O)N(C)Cc1ccccc1` [Compound No. 12, (S)-N-Benzyl-N-methyl-2-[[(S)-2-phenyl-1-carboxymethyl-ethylamino]-ethylamino]-3-phenyl-propionamide], which IC50 [1] is on record?
Its IC50 is 1440 nM.

What about the IC50 (NK1 receptor) of the same compound?
Its IC50 is 1430 nM.

Which results are given for `COC(=O)[C@H](Cc1c[nH]c2ccccc12)NCCN[C@@H](Cc1ccccc1)C(=O)N(C)Cc1cc(OC)c(OC)c(OC)c1` [Compound No. 8, (S)-N-(3,4,5-Trimethoxybenzyl)-N-methyl-2-[[(S)-2-(1H-indol-3-yl)-1-carboxymethyl-ethylamino]ethylamino]-3-phenyl-propionamide]?
IC50 [1]: 1990 nM; IC50 (NK1 receptor): 711 nM

For `CN(Cc1ccccc1)C(=O)[C@H](Cc1ccccc1)NCCNCCc1c[nH]c2ccccc12` [Compound No. 9], which IC50 [1] is on record?
The IC50 was 114 nM.

What about the IC50 (NK1 receptor) of the same compound?
Its IC50 is 778 nM.

Which results are given for `COC(=O)[C@H](Cc1c[nH]c2ccccc12)NCCN[C@@H](Cc1ccccc1)CN(C)C(=O)c1ccccc1` [Compound No. 14, N-Methyl-N-[(S)-2-[[(S)-2-(1H-indol-3-yl)-1-carboxymethyl-ethylamino]-ethylamino]-3-phenyl-propyl]-benzamide]?
IC50 [1]: 1220 nM; IC50 (NK1 receptor): 10000 nM

Which results are given for `CN(Cc1ccccc1)C(=O)[C@H](Cc1ccccc1)NCCN[C@@H](Cc1c[nH]c2ccccc12)C(=O)O` [Compound No. 16, (S)-N-Benzyl-N-methyl-2-[[(S)-2-(1H-indol-3-yl)-1-carboxy-ethylamino]-ethylamino]-3-phenyl-propionamide]?
IC50 [1]: 1580 nM; IC50 (NK1 receptor): 3800 nM

What does the source list for `COC(=O)[C@H](Cc1c[nH]c2ccccc12)NCCN(C(=O)OC(C)(C)C)[C@@H](Cc1ccc2ccccc2c1)C(=O)N(C)Cc1ccccc1` [Compound No. 15, (S)-N-Benzyl-N-methyl-2-[[(S)-2-(1H-indol-3-yl)-1-carboxymethyl-ethylamino]-N'-(t-butoxycarbonyl)ethylamino]-3-(naphth-2-yl)-propionamide]?
IC50 [1]: 2560 nM; IC50 (NK1 receptor): > 10000 nM

With `CN(Cc1ccccc1)C(=O)[C@H](Cc1ccccc1)NCCN[C@@H](Cc1c[nH]c2ccccc12)C(N)=O` [Compound No. 7, (S)-N-Benzyl-N-methyl-2-[[(S)-2-(1H-indol-3-yl)-1-carboxylic acid amide-ethylamino]-ethylamino]-3-phenyl-propionamide] as the compound, how does the IC50 [1] read?
Its IC50 is 211 nM.

And the IC50 (NK1 receptor)?
Its IC50 is 472 nM.

Which results are given for `CC(Cc1c[nH]c2ccccc12)NCCN[C@@H](Cc1ccccc1)C(=O)N(C)Cc1ccccc1` (mixture of isomers) [Compound No. 11, (S)-N-Benzyl-N-methyl-2-[[(R and S)-2-(1H-indol-3-yl)-1-methyl-ethylamino]-ethylamino]-3-phenyl-propionamide]?
IC50 [1]: 131 nM; IC50 (NK1 receptor): 953 nM

Which IC50 [1] does the source give for `COC(=O)[C@H](Cc1c[nH]c2ccccc12)NCCN[C@@H](Cc1ccccc1)C(=O)N(C)Cc1ccccc1` [Compound No. 6, (S)-N-Benzyl-N-methyl-2-[[(S)-2-(1H-indol-3-yl)-1-carboxymethyl-ethylamino]-ethylamino]-3-phenyl-propionamide] here?
Its IC50 is 228 nM.

And the IC50 (NK1 receptor)?
The IC50 was 294 nM.

How did the IC50 [1] turn out when `COC(=O)[C@@H](NCCN[C@@H](Cc1ccccc1)C(=O)N(C)Cc1ccccc1)c1ccccc1` [Compound No. 13, (S)-N-Benzyl-N-methyl-2-[[(S)-1-phenyl-1-carboxymethyl-methylamino]-ethylamino]-3-phenyl-propionamide] was run?
The IC50 was 4710 nM.

And the IC50 (NK1 receptor)?
The IC50 was 2410 nM.
